In paper PMC12736255, “Reinvestigating Pyrrol-2-One-Based Compounds: From Antimicrobial Agents to Promising Antitumor Candidates” (Pharmaceuticals, 2025):

How the values were obtained:
[1] = test system: RPMI-8226; assay: NCI-60 5-dose screen; assay type: cell-based, human; settings: for GI50 / CC50: Homo sapiens; for CC50: read-out: LC50 (the source's name)
[2] = test system: A549/ATCC; assay: NCI-60 5-dose screen; assay type: cell-based, human; settings: for GI50 / CC50: Homo sapiens; for CC50: read-out: LC50 (the source's name)
[3] = test system: BT-549; assay: NCI-60 5-dose screen; assay type: cell-based, human; settings: for GI50 / CC50: Homo sapiens; for CC50: read-out: LC50 (the source's name)
[4] = test system: SK-MEL-2; assay: NCI-60 5-dose screen; assay type: cell-based, human; settings: for GI50 / CC50: Homo sapiens; for CC50: read-out: LC50 (the source's name)
[5] = test system: IGROV1; assay: NCI-60 5-dose screen; assay type: cell-based, human; settings: for GI50 / CC50: Homo sapiens; for GI50: IGROV-1; for CC50: IGROV-1, read-out: LC50 (the source's name)
[6] = test system: OVCAR-4; assay: NCI-60 5-dose screen; assay type: cell-based, human; settings: for GI50 / CC50: Homo sapiens; for CC50: read-out: LC50 (the source's name)
[7] = test system: COLO 205; assay: NCI-60 5-dose screen; assay type: cell-based, human; settings: for GI50 / CC50: Homo sapiens; for CC50: read-out: LC50 (the source's name)
[8] = test system: HCT-116; assay: NCI-60 5-dose screen; assay type: cell-based, human; settings: for GI50 / CC50: Homo sapiens; for CC50: read-out: LC50 (the source's name)
[9] = test system: OVCAR-3; assay: NCI-60 5-dose screen; assay type: cell-based, human; settings: for GI50 / CC50: Homo sapiens; for CC50: read-out: LC50 (the source's name)
[10] = test system: T-47D; assay: NCI-60 5-dose screen; assay type: cell-based, human; settings: for GI50 / CC50: Homo sapiens, T47D; for CC50: read-out: LC50 (the source's name)
[11] = test system: OVCAR-3; assay: NCI-60 single-dose screen; assay type: cell-based; settings: Homo sapiens; OVCAR-3, 10^–5 M; read-out: GI (%)
Summary of the method: (§1)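 Compounds were tested at a single concentration of 10^−5 M against the NCI panel of 60 human tumor cell lines covering leukemia, melanoma, lung, colon, CNS, ovarian, renal, prostate and breast cancers.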

[12] = test system: NCI-H460; assay: NCI-60 single-dose screen; assay type: cell-based; settings: Homo sapiens; NCI-H460, 10^–5 M; read-out: GI (%)
Summary of the method: as §1

[13] = test system: PC-3; assay: NCI-60 single-dose screen; assay type: cell-based; settings: Homo sapiens, PC-3, PC-3, 10^–5 M; read-out: GI (%)
Summary of the method: as §1

[14] = test system: TK-10; assay: NCI-60 single-dose screen; assay type: cell-based; settings: Homo sapiens; TK-10, 10^–5 M; read-out: GI (%)
Summary of the method: as §1

[15] = test system: HT-29; assay: NCI-60 single-dose screen; assay type: cell-based; settings: Homo sapiens; HT-29, 10^–5 M; read-out: GI (%)
Summary of the method: as §1

[16] = test system: COLO205; assay: NCI-60 single-dose screen; assay type: cell-based; settings: Homo sapiens, COLO 205; COLO205, 10^–5 M; read-out: GI (%)
Summary of the method: as §1

[17] = test system: SK-MEL-5; assay: NCI-60 single-dose screen; assay type: cell-based; settings: Homo sapiens; SK-MEL-5, 10^–5 M; read-out: GI (%)
Summary of the method: as §1

[18] = test system: MALME-3M; assay: NCI-60 single-dose screen; assay type: cell-based; settings: Homo sapiens, 10^–5 M, read-out: GI (%)
Summary of the method: as §1

[19] = test system: HOP-92; assay: NCI-60 single-dose screen; assay type: cell-based; settings: Homo sapiens; HOP-92, 10^–5 M; read-out: GI (%)
Summary of the method: as §1

[20] = test system: OVCAR-8; assay: NCI-60 single-dose screen; assay type: cell-based; settings: Homo sapiens; OVCAR-8, 10^–5 M; read-out: GI (%)
Summary of the method: as §1

[21] = test system: KM12; assay: NCI-60 single-dose screen; assay type: cell-based; settings: Homo sapiens; KM12, 10^–5 M; read-out: GI (%)
Summary of the method: as §1

[22] = test system: ACHN; assay: NCI-60 single-dose screen; assay type: cell-based; settings: Homo sapiens, 10^–5 M, read-out: GI (%)
Summary of the method: as §1

[23] = test system: SF-268; assay: NCI-60 single-dose screen; assay type: cell-based; settings: Homo sapiens; SF-268, 10^–5 M; read-out: GI (%)
Summary of the method: as §1

[24] = test system: SR; assay: NCI-60 single-dose screen; assay type: cell-based; settings: Homo sapiens, 10^–5 M, read-out: GI (%)
Summary of the method: as §1

[25] = test system: NCI/ADR-RES; assay: NCI-60 single-dose screen; assay type: cell-based; settings: Homo sapiens, 10^–5 M, read-out: GI (%)
Summary of the method: as §1

[26] = test system: MDA-MB-231/ATCC; assay: NCI-60 5-dose screen; assay type: cell-based, human; settings: for GI50 / CC50: Homo sapiens; for CC50: read-out: LC50 (the source's name)
[27] = test system: HS 578T; assay: NCI-60 5-dose screen; assay type: cell-based, human; settings: for GI50 / CC50: Homo sapiens; for CC50: read-out: LC50 (the source's name)
[28] = test system: U251; assay: NCI-60 5-dose screen; assay type: cell-based, human; settings: for GI50 / LC50 (50% lethal concentration): Homo sapiens, U-251
[29] = test system: LOX IMVI; assay: NCI-60 5-dose screen; assay type: cell-based, human; settings: for GI50 / CC50: Homo sapiens; for CC50: read-out: LC50 (the source's name)

## N#Cc1ccc(C2C=C(Nc3ccc(I)cc3)C(=O)N2c2ccc(I)cc2)cc1 (stereo not drawn) [3l]
[1]
  TGI: >100 µM
  GI50: 3.07 µM
  CC50: > 100 µM
[2]
  TGI: >100 µM
  GI50: 8.08 µM
  CC50: > 100 µM
[3]
  TGI: >100 µM
  GI50: 5.81 µM
  CC50: > 100 µM
[4]
  TGI: >100 µM
  GI50: 3.7 µM
  CC50: > 100 µM
[5]
  TGI: >100 µM
  GI50: 8.67 µM
  CC50: > 100 µM
[6]
  TGI: 1.69 µM
  GI50: 0.422 µM
  CC50: 4.82 µM
[7]
  TGI: >100 µM
  GI50: 5.29 µM
  CC50: > 100 µM
[8]
  TGI: >100 µM
  GI50: 3.83 µM
  CC50: > 100 µM
[9]
  TGI: >100 µM
  GI50: 4.72 µM
  CC50: > 100 µM
[10]
  TGI: >100 µM
  GI50: 7.13 µM
  CC50: > 100 µM
[11]
  inhibition at 10 µM: 60%
[12]
  inhibition at 10 µM: 40%
[13]
  inhibition at 10 µM: 45%
[14]
  inhibition at 10 µM: 99%
[15]
  inhibition at 10 µM: 40%
[16]
  inhibition at 10 µM: 46%
[17]
  inhibition at 10 µM: 24%
[18]
  inhibition at 10 µM: 46%
[19]
  inhibition at 10 µM: 75%
[20]
  inhibition at 10 µM: 30%
[21]
  inhibition at 10 µM: 52%
[22]
  inhibition at 10 µM: 100%
[23]
  inhibition at 10 µM: 93%
[24]
  inhibition at 10 µM: 87%
[25]
  inhibition at 10 µM: 37%
[26]
  TGI: 9.63 µM
  GI50: 2.5 µM
  CC50: > 100 µM
[27]
  TGI: 5.64 µM
  GI50: 2.1 µM
  CC50: > 100 µM
[28]
  TGI: >100 µM
  GI50: 4.17 µM
  LC50 (50% lethal concentration): > 100 µM
[29]
  TGI: >100 µM
  GI50: 3.38 µM
  CC50: > 100 µM

## O=C1C(Nc2ccc(I)cc2)=CC(c2ccc(C(F)(F)F)cc2)N1c1ccc(I)cc1 (stereo not drawn) [3e]
[1]
  TGI: >100 µM
  GI50: 5.38 µM
  CC50: > 100 µM
[2]
  TGI: >100 µM
  GI50: > 100 µM
  CC50: > 100 µM
[3]
  TGI: >100 µM
  GI50: 9.61 µM
  CC50: > 100 µM
[4]
  TGI: >100 µM
  GI50: > 100 µM
  CC50: > 100 µM
[5]
  TGI: >100 µM
  GI50: > 100 µM
  CC50: > 100 µM
[6]
  TGI: 4.41 µM
  GI50: 1.82 µM
  CC50: > 100 µM
[7]
  TGI: >100 µM
  GI50: 4.57 µM
  CC50: > 100 µM
[8]
  TGI: >100 µM
  GI50: 5.92 µM
  CC50: > 100 µM
[9]
  TGI: >100 µM
  GI50: 7.48 µM
  CC50: > 100 µM
[10]
  TGI: 7.57 µM
  GI50: 2.74 µM
  CC50: > 100 µM
[11]
  inhibition at 10 µM: 72%
[12]
  inhibition at 10 µM: 43%
[13]
  inhibition at 10 µM: 26%
[14]
  inhibition at 10 µM: 100%
[15]
  inhibition at 10 µM: 32%
[16]
  inhibition at 10 µM: 61%
[17]
  inhibition at 10 µM: 0%
[18]
  inhibition at 10 µM: 78%
[19]
  inhibition at 10 µM: 62%
[20]
  inhibition at 10 µM: 43%
[21]
  inhibition at 10 µM: 35%
[22]
  inhibition at 10 µM: 100%
[23]
  inhibition at 10 µM: 100%
[24]
  inhibition at 10 µM: 99%
[25]
  inhibition at 10 µM: 35%
[26]
  TGI: >100 µM
  GI50: 5.36 µM
  CC50: > 100 µM
[27]
  TGI: 9.97 µM
  GI50: 3.45 µM
  CC50: > 100 µM
[28]
  TGI: >100 µM
  GI50: 8.97 µM
  LC50 (50% lethal concentration): > 100 µM
[29]
  TGI: >100 µM
  GI50: > 100 µM
  CC50: > 100 µM
